Laboratory results from US20140219931A1, “P-MENTHANE-3,8-DIOL ISOMER MIXTURE, COOLING SENSATION COMPOSITION COMPRISING THE SAME, AND PRODUCT COMPRISING THE COOLING SENSATION COMPOSITION” (TAKASAGO INTERNATIONAL CORPORATION, priority 2011, published 2014).

How the values were obtained:
[1] = system: mouth of professional panelists; assay: Test Experiment 1: sensory evaluation of cooling sensation strength in the mouth; type: in vivo, human; conditions: 180 ppm aqueous solution in the mouth, 10 panelists; relative score, Comparative Example 1 taken as 3
Protocol: (§1) [Test Experiment 1] Sensory Evaluation for Comparison of Cooling Sensation Strength between (1S)-p-Menthane-3,8-diol Isomer Mixture, (1RS)-p-Menthane-3,8-diol Isomer Mixture, and (1R)-p-Menthane-3,8-diol Isomer Mixture Aqueous solutions containing 180 ppm of the (1S)-p-menthane-3,8-diol isomer mixture, the (1RS)-p-menthane-3,8-diol isomer mixture, and the (1R)-p-menthane-3,8-diol isomer mixture obtained in Example 1, Example 2, and Comparative Example 1, respectively, were prepared. Sensory evaluation was conducted in the mouth on these 180 ppm aqueous solutions by 10 professional panelists having 5-year or longer experience.

[2] = system: mouth of professional panelists; assay: Test Experiment 2: sensory evaluation of cooling sensation persistence in the mouth; type: in vivo, human; conditions: for Cooling sensation persistence time: 180 ppm aqueous solution retained in the mouth 30 seconds, then spit out, time until cooling sensation disappeared, average of 10 panelists; for persistence of cooling sensation effect relative to the (1R)-p-menthane-3,8-diol isomer mixture: 180 ppm aqueous solution, from Table 2
Protocol: as §1, with “2]” for “1]”, “Persistence” for “Strength”, “experience. In the sensory evaluation, each 180 ppm aqueous solution was retained in the month for 30 seconds, and then spit out. After that, the time taken until the cooling sensation disappeared was measured, and the average was calculated to evaluate the effect.” for “experience.”

Structure (SMILES) | Average cooling sensation strength score [1] | Cooling sensation persistence time [2] [min] | persistence of cooling sensation effect relative to the (1R)-p-menthane-3,8-diol isomer mixture [2]
C[C@@H]1CCC(C(C)(C)O)C(O)C1 (mixture of isomers) [Comparative Example 1, (1R)-p-menthane-3,8-diol isomer mixture, reference compound] | 3 | 4.3 | –
C[C@H]1CCC(C(C)(C)O)C(O)C1 (mixture of isomers) [Example 1, (1S)-p-menthane-3,8-diol isomer mixture] | 15 | 15.5 | approximately 3.6 times
CC1CCC(C(C)(C)O)C(O)C1 (racemic) [Example 2, (1RS)-p-menthane-3,8-diol isomer mixture] | 9 | 9.8 | approximately 2.3 times
